The source of these data is article PMC12307812 (Nature Communications, 2025).

Experiment [1] relates to SARS-CoV-2 Omicron variant KP.3.1.1. Put plainly: microbe, parasite or virus in culture. It counts as cell-based. As to conditions: for mean log10(PFU/ml): KP.3.1.1; for IC50: Severe acute respiratory syndrome coronavirus 2, Calu-3, 48 h, read-out: IC50, live SARS-CoV-2 infection KP.3.1.1.
In experiment [2] the test system is SARS-CoV-2 Delta variant AY.1. Briefly: microbe, parasite or virus in culture. It counts as cell-based. The following applies: for mean log10(PFU/ml): AY.1; for IC50: Severe acute respiratory syndrome coronavirus 2, Calu-3, 48 h, read-out: IC50, live SARS-CoV-2 infection AY.1 (Delta).

Take `CN(C)C(=O)COC(=O)Cc1ccc(OC(=O)c2ccc(NC(=N)N)cc2)cc1` [camostat]: the “mean log10(PFU/ml)” value in experiment [1] (concentration 5 nM) was 7.955 log10(PFU/ml); in experiment [1] (concentration 50 nM), 6.207 log10(PFU/ml); in experiment [1] (concentration 500 nM) it was 5.0218 log10(PFU/ml); in experiment [1] (concentration 5000 nM), 1.958 log10(PFU/ml); in experiment [1] (concentration 50000 nM) it was 1.699 log10(PFU/ml); in experiment [2] (concentration 5 nM), 7.732 log10(PFU/ml). For the same molecule, the “mean log10(PFU/ml)” value in experiment [2] (concentration 50 nM) is on record as 7.059 log10(PFU/ml); in experiment [2] (concentration 500 nM), 6.615 log10(PFU/ml); in experiment [2] (concentration 5000 nM), 4.492 log10(PFU/ml); in experiment [2] (concentration 50000 nM), 3.6181 log10(PFU/ml). Also, the IC50 in experiment [1] was 38.3 nM; in experiment [2] it was 22.1 nM.

With `CC(C)(C)NC(=O)N1CCN(C(=O)N2C(=O)C(CCCNC(=N)N)C2C(=O)O)CC1` (stereo not drawn) [BMS-262084], the “mean log10(PFU/ml)” value in experiment [1] (concentration 5 nM) was 7.893 log10(PFU/ml); in experiment [1] (concentration 50 nM), 4.129 log10(PFU/ml); in experiment [1] (concentration 500 nM), 1.9 log10(PFU/ml); in experiment [1] (concentration 5000 nM) it was 1.699 log10(PFU/ml); in experiment [1] (concentration 50000 nM), 1.498 log10(PFU/ml); in experiment [2] (concentration 5 nM) it was 7.781 log10(PFU/ml). The “mean log10(PFU/ml)” value in experiment [2] (concentration 50 nM) is listed as 5.891 log10(PFU/ml); in experiment [2] (concentration 500 nM), 3.176 log10(PFU/ml); in experiment [2] (concentration 5000 nM), 2.572 log10(PFU/ml); in experiment [2] (concentration 50000 nM), 2.538 log10(PFU/ml). Moreover, the IC50 in experiment [1] turned out to be 8.03 nM; in experiment [2], 8.66 nM.
